Here are results for 68 sequences from the supplement of paper PMC11208160.

The nature of the data set: recombinant UMI read abundance after kanamycin selection (control-corrected) (log10(CPM+1)); higher = more efficient recombination; extreme values may be limits of the assay; sequences stand for … in AGTGCAGAGAAAATCGGCCAGTTTTCTCTGCCTGCAGTCCGCATGCCGTGGGACCCCTTGGGTTCTAACCTGTTGCCTAGATTTATGCAGCGGACTGCCTTTCTCCCAAAGTGATAAACCGG…AGGTTGGTTTCACT; site = the 11-nt donor. The method, boiled down:
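Sequencing read counts were converted to CPM, averaged over two replicates and scaled by control-derived factors. Results are given as log10(CPM+1). The reads covered the donor–target junction of recombinant UMIs from a pooled Escherichia coli screen of donor and donor-binding-loop pairs for the IS621 bridge recombinase.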
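Also: IS621 bridge recombinase in Escherichia coli cells against a fixed T5 target plasmid.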

For “GCGACAACATGGACCGGTTTTCCCGGTAATCCGTATTTGCT (site GCGATAACTAG)”, the “recombinant UMI read abundance (log10)” value was 0.37.

Turning to “GCGACAACATGGACCGGTTTTCCCGGTAATCCGTATTTGGT (site GCGACAACTAC)”, the “recombinant UMI read abundance (log10)” value worked out at 2.46.

For the sequence “GCGATTCCATGGACCGGTTTTCCCGGTAATCCGTATTTGTC (site GCGATTCCTGA)”, the “recombinant UMI read abundance (log10)” value was determined as 1.78.

For “GCGCAGCCATGGACCGGTTTTCCCGGTAATCCGTATTTGGG (site GCGAAGCCTCC)”, the “recombinant UMI read abundance (log10)” value is 0.0174.

As for “GCGCAGCCATGGACCGGTTTTCCCGGTAATCCGTATTTGGG (site GCGCAGCCTCC)”, the “recombinant UMI read abundance (log10)” value came out at 0.00363.

“GCGCAGCCATGGACCGGTTTTCCCGGTAATCCGTATTTGGG (site GCGGAGCCTCC)”: the “recombinant UMI read abundance (log10)” value was 0.0138.

Regarding “GCGCAGCCATGGACCGGTTTTCCCGGTAATCCGTATTTGGG (site GCGTAGCCTCC)”, the “recombinant UMI read abundance (log10)” value amounted to 0.0296.

Take “GCGCCCTCATGGACCGGTTTTCCCGGTAATCCGTATTTGAC (site GCGCCCTCTGT)”: the “recombinant UMI read abundance (log10)” value came out at 2.76.

For “GCGCCGGCATGGACCGGTTTTCCCGGTAATCCGTATTTGTG (site GCGCCGGCTCA)”, the “recombinant UMI read abundance (log10)” value is 0.015.

“GCGCTCTCATGGACCGGTTTTCCCGGTAATCCGTATTTGCT (site GCGCTCTCTAG)”: the “recombinant UMI read abundance (log10)” value came to 2.75.

On to “GCGGAGTCATGGACCGGTTTTCCCGGTAATCCGTATTTGTT (site GCGGAGTCTAA)”, for which the “recombinant UMI read abundance (log10)” value was determined as 3.15.

For “GCGTATGCATGGACCGGTTTTCCCGGTAATCCGTATTTGTA (site GCGTATGCTTA)”, the “recombinant UMI read abundance (log10)” value is 2.99.

For “GCGTGACCATGGACCGGTTTTCCCGGTAATCCGTATTTGCA (site GCGTGACCTTG)”, the “recombinant UMI read abundance (log10)” value amounted to 0.00644.

For the sequence “GCGTGGTCATGGACCGGTTTTCCCGGTAATCCGTATTTGGC (site GCGTGGTCTGC)”, the “recombinant UMI read abundance (log10)” value was 2.06.

As to “GCGTTGACATGGACCGGTTTTCCCGGTAATCCGTATTTGAG (site GCGTTGACTCT)”, the “recombinant UMI read abundance (log10)” value was 1.98.

Consider “GCGTTGACATGGACCGGTTTTCCCGGTAATCCGTATTTGCA (site GCGTTGACTTG)”, for which the “recombinant UMI read abundance (log10)” value came to 2.59.

On to “GCTAATGCATGGACCGGTTTTCCCGGTAATCCGTATTTGCC (site GCTAATGCTGG)”, for which the “recombinant UMI read abundance (log10)” value came to 0.

For the sequence “GCTAATGCATGGACCGGTTTTCCCGGTAATCCGTATTTGCC (site GCTACTGCTGG)”, the “recombinant UMI read abundance (log10)” value was 0.

Take “GCTAATGCATGGACCGGTTTTCCCGGTAATCCGTATTTGCC (site GCTAGTGCTGG)”: the “recombinant UMI read abundance (log10)” value came out at 0.

Turning to “GCTAATGCATGGACCGGTTTTCCCGGTAATCCGTATTTGCC (site GCTATTGCTGG)”, the “recombinant UMI read abundance (log10)” value turned out to be 0.

Turning to “GCTACCCCATGGACCGGTTTTCCCGGTAATCCGTATTTGTG (site GCTACCCCTCA)”, the “recombinant UMI read abundance (log10)” value turned out to be 0.013.

Regarding “GCTACCGCATGGACCGGTTTTCCCGGTAATCCGTATTTGCA (site GCTACCGCTTG)”, the “recombinant UMI read abundance (log10)” value is 2.13.

“GCTACCTCATGGACCGGTTTTCCCGGTAATCCGTATTTGCG (site GCTACCTCTCG)”: the “recombinant UMI read abundance (log10)” value came out at 1.22.

Consider “GCTACGGCATGGACCGGTTTTCCCGGTAATCCGTATTTGCC (site GCTACAGCTGG)”, for which the “recombinant UMI read abundance (log10)” value was 0.

In the case of “GCTACGGCATGGACCGGTTTTCCCGGTAATCCGTATTTGCC (site GCTACCGCTGG)”, the “recombinant UMI read abundance (log10)” value is 0.

Turning to “GCTACGGCATGGACCGGTTTTCCCGGTAATCCGTATTTGCC (site GCTACGGCTGG)”, the “recombinant UMI read abundance (log10)” value stood at 0.761.

For “GCTACGGCATGGACCGGTTTTCCCGGTAATCCGTATTTGCC (site GCTACTGCTGG)”, the “recombinant UMI read abundance (log10)” value was found to be 0.

For “GCTACTACATGGACCGGTTTTCCCGGTAATCCGTATTTGCC (site GCTACTACTGG)”, the “recombinant UMI read abundance (log10)” value came to 0.

Consider “GCTACTACATGGACCGGTTTTCCCGGTAATCCGTATTTGCC (site GCTACTCCTGG)”, for which the “recombinant UMI read abundance (log10)” value was found to be 0.

For “GCTACTACATGGACCGGTTTTCCCGGTAATCCGTATTTGCC (site GCTACTGCTGG)”, the “recombinant UMI read abundance (log10)” value was determined as 0.

In the case of “GCTACTACATGGACCGGTTTTCCCGGTAATCCGTATTTGCC (site GCTACTTCTGG)”, the “recombinant UMI read abundance (log10)” value is 0.

In the case of “GCTACTGCATGGACCGGTTTTCCCGGTAATCCGTATTTGAC (site GCTACTGCTGA)”, the “recombinant UMI read abundance (log10)” value amounted to 0.

Turning to “GCTACTGCATGGACCGGTTTTCCCGGTAATCCGTATTTGAC (site GCTACTGCTGC)”, the “recombinant UMI read abundance (log10)” value is 0.

Take “GCTACTGCATGGACCGGTTTTCCCGGTAATCCGTATTTGAC (site GCTACTGCTGG)”: the “recombinant UMI read abundance (log10)” value was found to be 0.

In the case of “GCTACTGCATGGACCGGTTTTCCCGGTAATCCGTATTTGAC (site GCTACTGCTGT)”, the “recombinant UMI read abundance (log10)” value amounted to 2.07.

On to “GCTACTTCATGGACCGGTTTTCCCGGTAATCCGTATTTGCC (site GCTACTACTGG)”, for which the “recombinant UMI read abundance (log10)” value is 0.

Take “GCTACTTCATGGACCGGTTTTCCCGGTAATCCGTATTTGCC (site GCTACTCCTGG)”: the “recombinant UMI read abundance (log10)” value was determined as 0.

On to “GCTACTTCATGGACCGGTTTTCCCGGTAATCCGTATTTGCC (site GCTACTGCTGG)”, for which the “recombinant UMI read abundance (log10)” value worked out at 0.

Take “GCTACTTCATGGACCGGTTTTCCCGGTAATCCGTATTTGCC (site GCTACTTCTGG)”: the “recombinant UMI read abundance (log10)” value was determined as 1.34.

On to “GCTAGAGCATGGACCGGTTTTCCCGGTAATCCGTATTTGTA (site GCTAGAGCTTA)”, for which the “recombinant UMI read abundance (log10)” value stood at 2.58.

For “GCTAGGGCATGGACCGGTTTTCCCGGTAATCCGTATTTGTT (site GCTAGGGCTAA)”, the “recombinant UMI read abundance (log10)” value came to 1.53.

Take “GCTCGCCCATGGACCGGTTTTCCCGGTAATCCGTATTTGAT (site GCTAGCCCTAT)”: the “recombinant UMI read abundance (log10)” value is 0.0115.

For the sequence “GCTCGCCCATGGACCGGTTTTCCCGGTAATCCGTATTTGAT (site GCTCGCCCTAT)”, the “recombinant UMI read abundance (log10)” value stood at 0.567.

On to “GCTCGCCCATGGACCGGTTTTCCCGGTAATCCGTATTTGAT (site GCTGGCCCTAT)”, for which the “recombinant UMI read abundance (log10)” value was 0.019.

Consider “GCTCGCCCATGGACCGGTTTTCCCGGTAATCCGTATTTGAT (site GCTTGCCCTAT)”, for which the “recombinant UMI read abundance (log10)” value amounted to 0.00792.

Turning to “GCTCGTACATGGACCGGTTTTCCCGGTAATCCGTATTTGAT (site GCTCGTACTAT)”, the “recombinant UMI read abundance (log10)” value amounted to 1.1.

With “GCTCTGCCATGGACCGGTTTTCCCGGTAATCCGTATTTGCG (site GCTCTGCCTCG)”, the “recombinant UMI read abundance (log10)” value was 0.0154.

Turning to “GCTGCAGCATGGACCGGTTTTCCCGGTAATCCGTATTTGTC (site GCTGCAGCTGA)”, the “recombinant UMI read abundance (log10)” value was 2.59.

Take “GCTGGAACATGGACCGGTTTTCCCGGTAATCCGTATTTGAC (site GCTGGAACTGT)”: the “recombinant UMI read abundance (log10)” value came to 1.62.

As for “GCTGTGTCATGGACCGGTTTTCCCGGTAATCCGTATTTGGA (site GCTGTGTCTTC)”, the “recombinant UMI read abundance (log10)” value turned out to be 1.46.

For the sequence “GCTTAGACATGGACCGGTTTTCCCGGTAATCCGTATTTGGC (site GCTTAGACTGC)”, the “recombinant UMI read abundance (log10)” value was 2.37.

Take “GCTTCCCCATGGACCGGTTTTCCCGGTAATCCGTATTTGAT (site GCTTACCCTAT)”: the “recombinant UMI read abundance (log10)” value worked out at 0.0108.

Regarding “GCTTCCCCATGGACCGGTTTTCCCGGTAATCCGTATTTGAT (site GCTTCCCCTAT)”, the “recombinant UMI read abundance (log10)” value worked out at 0.569.

For “GCTTCCCCATGGACCGGTTTTCCCGGTAATCCGTATTTGAT (site GCTTGCCCTAT)”, the “recombinant UMI read abundance (log10)” value turned out to be 0.00758.

For the sequence “GCTTCCCCATGGACCGGTTTTCCCGGTAATCCGTATTTGAT (site GCTTTCCCTAT)”, the “recombinant UMI read abundance (log10)” value was 0.028.

On to “GCTTCCCCATGGACCGGTTTTCCCGGTAATCCGTATTTGCA (site GCTTCCCCTTG)”, for which the “recombinant UMI read abundance (log10)” value is 1.15.

Regarding “GCTTCTGCATGGACCGGTTTTCCCGGTAATCCGTATTTGCC (site GCTACTGCTGG)”, the “recombinant UMI read abundance (log10)” value stood at 0.647.

Consider “GCTTCTGCATGGACCGGTTTTCCCGGTAATCCGTATTTGCC (site GCTCCTGCTGG)”, for which the “recombinant UMI read abundance (log10)” value amounted to 1.82.

Consider “GCTTCTGCATGGACCGGTTTTCCCGGTAATCCGTATTTGCC (site GCTGCTGCTGG)”, for which the “recombinant UMI read abundance (log10)” value came to 0.

As to “GCTTCTGCATGGACCGGTTTTCCCGGTAATCCGTATTTGCC (site GCTTCTGCTGG)”, the “recombinant UMI read abundance (log10)” value worked out at 1.86.

On to “GCTTGCCCATGGACCGGTTTTCCCGGTAATCCGTATTTGGT (site GCTTGCCCTAA)”, for which the “recombinant UMI read abundance (log10)” value amounted to 0.00835.

As to “GCTTGCCCATGGACCGGTTTTCCCGGTAATCCGTATTTGGT (site GCTTGCCCTAC)”, the “recombinant UMI read abundance (log10)” value was 0.017.

As to “GCTTGCCCATGGACCGGTTTTCCCGGTAATCCGTATTTGGT (site GCTTGCCCTAG)”, the “recombinant UMI read abundance (log10)” value stood at 0.

Turning to “GCTTGCCCATGGACCGGTTTTCCCGGTAATCCGTATTTGGT (site GCTTGCCCTAT)”, the “recombinant UMI read abundance (log10)” value was determined as 0.

Consider “GCTTTACCATGGACCGGTTTTCCCGGTAATCCGTATTTGTT (site GCTTTACCTAA)”, for which the “recombinant UMI read abundance (log10)” value is 0.0408.

Consider “GCTTTAGCATGGACCGGTTTTCCCGGTAATCCGTATTTGTT (site GCTTTAGCTAA)”, for which the “recombinant UMI read abundance (log10)” value was 0.00318.

As to “GGAAATCCATGGACCGGTTTTCCCGGTAATCCGTATTTGAA (site GGAAATCCTTT)”, the “recombinant UMI read abundance (log10)” value worked out at 0.994.

“GGAAATCCATGGACCGGTTTTCCCGGTAATCCGTATTTGAA (site GGCAATCCTTT)”: the “recombinant UMI read abundance (log10)” value was 0.
